Test results: paper PMC10569260 (Nature methods, 2023)

Assays:
[1] = system: locomotion; assay: Open field locomotion with infusion / in vivo uncaging in the VTA; parameters: species or system mouse; conditions: naloxone 3 mg/kg intraperitoneal before CNV-Y-DAMGO infusion and light
[2] = system: inhibitory synaptic transmission onto CA1 pyramidal neurons (native opioid receptors); assay type: cell-based, mouse; conditions: CTAP 1 μM, with CNV-Y-DAMGO uncaging

Row | Molecule | effect on locomotor response to DAMGO photorelease [1] | effect on optically-evoked suppression of synaptic transmission [2]
1 | C=CCN1CC[C@]23c4c5ccc(O)c4O[C@H]2C(=O)CC[C@@]3(O)[C@H]1C5 [naloxone] | strongly attenuated | 
2 | CTAP |  | completely blocked
